Data set [1] deals with #50-1 (subgenomic replion) cells. As to the kind of experiment: Anti-HCV activity using subgenomic replicon cells (HCV genomic RNA, real-time RT-PCR). Format: cell-based. The note with it: for pEC50: Hepatitis C virus, 72 h, HCV genomic RNA level, 3 days; for anti-HCV activity (in words): Table 1; for HCV genomic RNA level: concentration of 10 μM, relative to control group without test compound. How it is done: (§1) The 70% confluent #50-1 (subgenomic replion) cells or NNC #2 (full-length replicon) cells (Ishii et al., J. Virol., 2006, vol. 80, pp. 4510-4520) were dispersed in a culture bottle with the aid of trypsin, and the resulting dispersion was resuspended in a high-glucose Dulbecco's modified Eagle medium (DMEM) containing 10% FCS and 1 mg/ml G418 (Sigma) (see FIGS. 1 and 2). The cell suspension adjusted at 5×10^4 cells/ml with the use thereof was added to wells of a 96-well culture plate at 100 μl/well (the final cell density in each well: […]), and culture was conducted at 37° C. Supernatants of culture media were removed from wells of the plate on the following day, 200 μl each of the solutions of test compounds appropriately diluted with a G418-free culture solution were added, and culture was further continued. Samples were prepared from cells in each well 3 days later with the use of the TaqMan® Gene Expression Cell-to-CT® (Applied Biosystems). Reverse transcription was carried out in accordance with the protocols for the ABI 7500 PCR systems (Applied Biosystems) at 37° C. for 60 minutes, 95° C. for 5 minutes, and retained at 4° C. Real-time PCR was carried out in accordance with the protocols for the ABI 7500 real-time PCR systems (Applied Biosystems) at 50° C. for 2 minutes, 95° C. for 10 minutes, 40 cycles at 95° C. for 15 seconds, and 60° C. for 1 minute.
(§2) In accordance with the method mentioned above, the level of the HCV genomic RNA and, as the internal standard, the level of mRNA of glyceraldehyde-3-phosphate dehydrogenase (GAPDH) (a house keeping gene of the host cells) were assayed, and a percentage (%) relative to the level of RNA of a control group to which the test compound was not administered was determined. The dose-response relationship of the test compound was analyzed based on the measured level of the HCV genomic RNA to determine EC50, and the dose-response relationship of the test compound was analyzed based on the measured level of GAPDH RNA to determine CC50. The term “EC50” and “CC50” used herein refers to 50% effective concentration (μM) and 50% cytotoxic concentration (μM), respectively.
(A replicon is a self-replicating genome or part of one, used to study replication in cells.)

Data set [2] is described as follows: Cytotoxicity in subgenomic replicon cells (GAPDH mRNA, real-time RT-PCR). The note with it: human, #50-1 (subgenomic HCV replicon) cells, GAPDH RNA level. Format: cell-based. The protocol:
as §1, §2

Data set [3] relates to #50-1 (subgenomic replion) cells. Described as above. Format: cell-based. The note with it: GAPDH RNA level, 3 days. How it is done: as §1, §2
The test system of data set [4] is Subgenomic HCV RNA replicon cells (LucNeo#2) having a luciferase gene. As to the kind of experiment: Anti-HCV activity using replicon cells (luciferase assay). Format: cell-based. The settings on record: luciferase assay; for pEC50: LucNeo#2 subgenomic replicon cells, 3 days, read-out: EC50; for anti-HCV activity (in words): Table 2, FIGS. 13 to 15. How it is done:
Subgenomic HCV RNA replicon cells (LucNeo#2, Goto et al., Biochem. Biophys. Res. Commun., 2006, vol. 343, pp. 879-884) having a luciferase gene were suspended in a Dulbecco's modified Eagle medium (DMEM) containing 10% FBS and 1 mg/ml G418 (Sigma). The cells were incubated for 24 hours and then cultured in G418-free fresh media each containing test compounds at various concentrations for 3 days. In order to perform luciferase assays, the cells were washed with PBS and treated with a lysate for 10 minutes with intermittent agitation. A cell lysate (25 μl) was transferred to a white microtiter plate. Luciferase assay reagents (100 μl, Promega, Tokyo) were added to each well and the luciferase activity was measured with a luminometer.
(§3) Based on the luciferase assay results, the HCV genomic RNA level was measured, and a percentage (%) relative to the level of RNA of a control group to which the test compound was not administered was determined. Based on the results of tetrazolium staining, cell survival rates (%) of the group to which the test compound had been administered and of a control group were determined. The dose-response relationship of the test compound was analyzed based on the results of quantitative luciferase assays to determine EC50(μM), and the dose-response relationship of the test compound was analyzed based on the results of tetrazolium staining to determine CC50.

Data set [5] relates to Subgenomic HCV RNA replicon cells (LucNeo#2). Briefly: Cytotoxicity (cell survival rate) by tetrazolium staining in luciferase replicon cells. Type of data set: cell-based. The settings on record: LucNeo#2 subgenomic replicon cells. How it is done: A tetrazolium staining solution (10 μl, Seikagaku Corporation, Tokyo) was added to each well in order to examine cytotoxicity (a cell survival rate). After the cells were incubated for 1 hour, the absorbance at the characteristic absorption wavelength (450 nm) was measured with the use of a microplate reader.
as §3

Data set [6] deals with HCV replicon cells. The note with it: inhibiting the replication of the HCV genome, Non-Patent Document 8; cited from earlier work.
In data set [7] the test system is NNC #2 (full-length replicon) cells. As to the kind of experiment: Anti-HCV activity using full-length replicon cells (HCV genomic RNA, real-time RT-PCR). Type of data set: cell-based. The note with it: FIGS. 3 to 6. How it is done:
as §1, §2

pEC50, pIC50: −log10 of the molar value. Entries after “also recorded” stand apart in the source; their conditions may differ. Bounds are passed on as bounds.

Consider `CCCCn1c(=O)c2ccccc2c2cc3ccccc3cc21` [MN313-B, 6-butylbenzo[b]phenanthridin-5(6H)-one], for which, in data set [1], the pEC50 (usually the EC50 on a negative log10 scale, so that one unit is a factor of ten) was 5.49 and the “anti-HCV activity (in words)” value was “very high degree of anti-HCV activity at non-cytotoxic concentrations”. Further, it took 6.3 µM to reach half-maximal cytotoxicity in data set [2] (CC50 at 3 days).
In the case of `CCCCn1c(=O)c2cc3ccccc3cc2c2ccccc21` [MN314-B, 5-butylbenzo[j]phenanthridin-6(5H)-one], the “anti-HCV activity (in words)” value in data set [1] is given as “very high degree of anti-HCV activity at non-cytotoxic concentrations”. Moreover, the CC50 (commonly the concentration at which the toxic effect on the cells reaches its halfway point) at 3 days in data set [2] is 33.5 µM. Moreover, the CC50 in data set [3] is more than 40 µM.
As for `CCCCn1c(=O)c2ccccc2c2ccc3ccccc3c21` [MN305, 5-butylbenzo[c]phenanthridin-6(5H)-one], in data set [1], the pEC50 is 4.71. In data set [3], the CC50 was 24.3 µM.
On to `CCCCn1c(=O)c2c3ccccc3ccc2c2ccccc21` [MN306, 6-butylbenzo[i]phenanthridin-5(6H)-one], for which, in data set [1], the pEC50 was 4.52 and the “anti-HCV activity (in words)” value is given as “very high degree of anti-HCV activity at non-cytotoxic concentrations”. Further, in data set [2], the CC50 at 3 days is more than 40 µM.
In data set [1], `CCCCn1c(=O)c2ccccc2c2cc3c(cc21)C(C)(C)CCC3(C)C` [MN256, 6-butyl-8,9,10,11-tetrahydro-8,8,11,11-tetramethylbenzo[2,3-b]phenanthridin-5(6H)-one] showed a pEC50 of 5.30. This molecule registered a CC50 at 3 days in data set [2] of 31.7 µM.
On to `CCCCn1c(=O)c2ccccc2c2c3ccccc3ccc21` [MN313-A, 6-butylbenzo[a]phenanthridin-5(6H)-one], for which, in data set [1], the pEC50 is 4.54 and the “anti-HCV activity (in words)” value is “very high degree of anti-HCV activity at non-cytotoxic concentrations”. Further, the CC50 in data set [3] was 44.5 µM.
On to `CCCCn1c(=O)c2cc3c(cc2c2cc(C(O)(C(F)(F)F)C(F)(F)F)ccc21)OCO3` [KZ26, 5-butyl-2-(1′,1′,1′,3′,3′,3′-hexafluoro-2′-hydroxypropan-2′-yl)-[1,3]dioxolo[4,5-j]phenanthridin-6(5H)-one], for which, in data set [4], the pEC50 is 5.64 and the “anti-HCV activity (in words)” value is “high degree of anti-HCV activity at non-cytotoxic concentrations”. Further, in data set [5], the CC50 was more than 100 µM.
Turning to `COc1cc(NC(=O)Nc2cccc(CNC(=O)O[C@H]3CCOC3)c2)ccc1-c1cnco1` [VX497], in data set [6], the pIC50 (usually the negative decadic logarithm of the IC50, by convention in mol/L) is 6.30.
Regarding `CCCCn1c(=O)c2ccccc2c2cc(C(OCc3ccccc3)(C(F)(F)F)C(F)(F)F)c(OC)cc21` [KZ37, 2-(2′-benzyloxy-1′,1′,1′,3′,3′,3′-hexafluoropropan-2′-yl)-5-butyl-3-methoxy-phenanthridin-6(5H)-one], in data set [4], the pEC50 was 5.59 and the “anti-HCV activity (in words)” value is recorded as “high degree of anti-HCV activity at non-cytotoxic concentrations; also recorded: high degree of anti-HCV activity”. Besides, the CC50 in data set [5] was more than 100 µM.
Consider `O=c1c2ccccc2c2cc(C(O)(C(F)(F)F)C(F)(F)F)ccc2n1CC1CCCCC1` [AA-26, 2-(1′,1′,1′,3′,3′,3′-hexafluoro-2′-hydroxypropan-2′-yl)-5-cyclohexylmethyl-phenanthridin-6(5H)-one], for which, in data set [7], the “anti-HCV activity (in words)” value was “high degree of anti-HCV activity”.
Take `CCCCn1c(=O)c2ccccc2c2ccc(C(C)C)cc21` [MN315-B, 5-butyl-3-isopropylphenanthridin-6(5H)-one]: the “HCV genomic RNA level” value in data set [1] was 14.7%.
Turning to `CCCCn1c(=O)c2ccccc2c2c(OC)c(C(OC)(C(F)(F)F)C(F)(F)F)cc(OC)c21` [KZ29, 5-butyl-2-(1′,1′,1′,3′,3′,3′-hexafluoro-2′-methoxypropan-2′-yl)-1,4-dimethoxy-phenanthridin-6(5H)-one], in data set [4], the pEC50 was 4.52. The molecule further registered a CC50 in data set [5] of more than 100 µM.
Regarding `O=c1c2ccccc2c2cc(C(O)(C(F)(F)F)C(F)(F)F)ccc2n1Cc1ccccc1` [AA-04, 2-(1′,1′,1′,3′,3′,3′-hexafluoro-2′-hydroxypropan-2′-yl)-5-benzylphenanthridin-6(5H)-one], the “anti-HCV activity (in words)” value in data set [7] is listed as “high degree of anti-HCV activity”.
In the case of `CCCCn1c(=O)c2ccccc2c2c(C(C)C)cccc21` [MN315-A, 5-butyl-1-isopropylphenanthridin-6(5H)-one], the “HCV genomic RNA level” value in data set [1] is listed as 46.3%.
`CCCCn1c(=O)c2c(OC)c(OC)ccc2c2cc(C(O)(C(F)(F)F)C(F)(F)F)ccc21` [KZ27, 5-butyl-2-(1′,1′,1′,3′,3′,3′-hexafluoro-2′-hydroxypropan-2′-yl)-7,8-dimethoxy-phenanthridin-6(5H)-one]: in data set [4], the pEC50 was 5.26. This molecule came in with a CC50 in data set [5] of 14.2 µM.
Turning to `CCCCn1c(=O)c2ccc3ccccc3c2c2ccccc21` [MN314-A, 5-butylbenzo[k]phenanthridin-6(5H)-one], the pEC50 in data set [1] is less than 4.50. In data set [3], this molecule had a cytotoxic concentration (CC50) of 31.4 µM.
On to `CCCCn1c(=O)c2c(OC)cc(OC)cc2c2cc(C(O)(C(F)(F)F)C(F)(F)F)ccc21` [KZ38, 5-butyl-2-(1′,1′,1′,3′,3′,3′-hexafluoro-2′-hydroxypropan-2′-yl)-7,9-dimethoxy-phenanthridin-6(5H)-one], for which, in data set [4], the pEC50 was 5.59. Moreover, the CC50 in data set [5] is 8.2 µM.
As for `CCCCn1c(=O)c2ccccc2c2cc(C(C)(C)C)ccc21` [MN325, 5-butyl-2-tert-butylphenanthridin-6(5H)-one], the pEC50 in data set [1] was 5.21. This molecule also showed a half-maximal cytotoxic concentration (CC50) at 3 days in data set [2] of 34.4 µM.
`CCCCn1c(=O)c2cccc(OC)c2c2cc(C(O)(C(F)(F)F)C(F)(F)F)ccc21` [KZ33, 5-butyl-2-(1′,1′,1′,3′,3′,3′-hexafluoro-2′-hydroxypropan-2′-yl)-10-methoxy-phenanthridin-6(5H)-one]: in data set [4], the pEC50 was 5.30. This molecule also showed a CC50 in data set [5] of 6.9 µM.
The like results for `CCCCn1c(=O)c2cc(OC)c(OC)cc2c2cc(C(O)(C(F)(F)F)C(F)(F)F)ccc21` [KZ25, 5-butyl-2-(1′,1′,1′,3′,3′,3′-hexafluoro-2′-hydroxypropan-2′-yl)-8,9-dimethoxy-phenanthridin-6(5H)-one] were, in that order, less than 5.55 and 2.8 µM.
In the case of `CCCCn1c(=O)c2ccccc2c2cc(C(O)(C(F)(F)F)C(F)(F)F)c(OC)cc21` [KZ36, 5-butyl-2-(1′,1′,1′,3′,3′,3′-hexafluoro-2-hydroxypropan-2′-yl)-3-methoxy-phenanthridin-6(5H)-one], the pEC50 in data set [4] was 5.66. The molecule also came in with a CC50 in data set [5] of 5.7 µM.
In the case of `CCCCCCn1c(=O)c2ccccc2c2cc(C(O)(C(F)(F)F)C(F)(F)F)ccc21` [AA-25, 2-(1′,1′,1′,3′,3′,3′-hexafluoro-2′-hydroxypropan-2′-yl)-5-hexylphenanthridin-6(5H)-one], the “anti-HCV activity (in words)” value in data set [7] was “high degree of anti-HCV activity”.
With `CCCCn1c(=O)c2ccccc2c2c(O)c(C(O)(C(F)(F)F)C(F)(F)F)ccc21` [KZ35, 5-butyl-2-(1′,1′,1′,3′,3′,3′-hexafluoro-2′-hydroxypropan-2′-yl)-1-hydroxy-phenanthridin-6(5H)-one], in data set [4], the pEC50 is 4.36. The molecule also yielded a CC50 in data set [5] of 52.3 µM.

(Values after patent publication US20120316342A1, “THERAPEUTIC AGENT FOR HEPATITIS C” (priority 2010, published 2012).)
